Patent publication US20040142317A1, “Use of amino acid transporter atbo,+ as a delivery system for drugs and prodrugs” (priority 2003, published 2004)

Biological target: T1, ATB^0 (Homo sapiens, UniProt Q15758)
T1 sequence (Q15758 1-541): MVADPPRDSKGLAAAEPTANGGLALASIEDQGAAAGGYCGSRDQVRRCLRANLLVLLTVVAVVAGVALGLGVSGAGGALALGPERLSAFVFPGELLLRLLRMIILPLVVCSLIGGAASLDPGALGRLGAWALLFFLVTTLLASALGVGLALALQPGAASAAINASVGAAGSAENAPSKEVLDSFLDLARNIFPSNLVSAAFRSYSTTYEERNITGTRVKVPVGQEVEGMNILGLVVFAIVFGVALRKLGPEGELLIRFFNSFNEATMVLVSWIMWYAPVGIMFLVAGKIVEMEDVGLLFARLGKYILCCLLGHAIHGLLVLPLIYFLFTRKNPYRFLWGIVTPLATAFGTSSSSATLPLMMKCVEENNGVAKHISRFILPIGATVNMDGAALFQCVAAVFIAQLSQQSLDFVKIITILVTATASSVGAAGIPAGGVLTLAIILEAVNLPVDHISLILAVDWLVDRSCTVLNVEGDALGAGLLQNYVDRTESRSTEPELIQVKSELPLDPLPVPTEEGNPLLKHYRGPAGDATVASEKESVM
Experiment: D-[3H]-serine transport in HRPE cells transfected with transporter cDNA
Assay type: cell-based
Design: expressed in transfected cells; host or cells: HRPE cells
Conditions: D-[3H]-serine 5 μM
Protocol: Transport of D-[^3H]-serine (5 μM) was measured in HRPE cells transfected with cDNA of each transporter.
The present inventors evaluated the function of 10 different amino acid transporter clones with respect to transport of D-serine in heterologous expression systems (FIG. 11). All of these transporters are expressed in the intestinal tract. The list of the transporters tested include three energy-independent, heterodimeric facilitative transporters (L1, L2, and b^0,+), three subtypes of the Na^+-coupled system A (ATA1, ATA2, and ATA3), two subtypes of the Na^+- and H^+-coupled system N (SN1 and SN2), the Na^+-coupled system ATB^0, and the Na^+- and Cl^−-coupled system ATB^0,+. […] The ability to transport D-serine was the highest for the Na^+- and Cl^−-coupled transporter ATB^0,+. ATB^0,+ belongs to the gene family of neurotransmitter transporters whose transport function is energized by multiple driving forces, namely a Na^+ gradient, a Cl^− gradient, and membrane potential. […] Based on the energetics of these two transport systems, ATB^0,+ is expected to play the leading role in this process.

With `N[C@H](CO)C(=O)O` [D-Serine, D-serine] the D-serine transport was “able to transport D-serine to a marked extent”.
